# Values of other authors in patent publication US20080194494A1, “4-Biarylyl-1-Phenylazetidin-2-One Glucuronide Derivatives for Hypercholesterolemia” (MICROBIA, INC., priority 2005, published 2008).
# Legend:
# [1] = in humans
# [2] = in vivo
smiles,measurement,setting,value
"O=C1[C@H](CC[C@H](O)c2ccc(F)cc2)[C@@H](c2ccc(O)cc2)N1c1ccc(F)cc1 [ezetimibe, (3R,4S)-1-(4-fluorophenyl)-3-[(3S)-3-(4-fluorophenyl)-3-hydroxypropyl]-4-(4-hydroxyphenyl)azetidin-2-one]",effect on fat-soluble vitamin absorption,[1],does not appear to affect
same,inhibition of the absorption of taurocholic acid,[2],does not inhibit
